Measured values: publication PMC6583776 (Journal of the American Chemical Society, 2019)

Assays:
Huh7.5.1 cells = assay: Cytotoxicity, CellTiter-Glo Cell Viability Luminescent Assay; assay type: cell-based
[1] = system: cap-dependent translation (Firefly luciferase); assay type: biochemical; conditions: 1 μM compound, Krebs-2 extracts, relative to DMSO
HCV = assay type: cell-based; conditions: time-of-addition; racemic compounds
[2] = system: HCV (HCVcc-Luc) infection of Huh7.5.1 cells; assay: HCV infection inhibition assay; assay type: cell-based; conditions: relative to aglaroxin C (6)
[3] = system: HCV IRES-dependent translation (Renilla luciferase); assay type: biochemical; conditions: 1 μM compound, Krebs-2 extracts, relative to DMSO
translation = conditions: ref 9p; cited from earlier work
[4] = system: Dengue virus (serotype 2, Thailand 16681 strain); assay type: cell-based; conditions: Huh7.5.1 cells, MOI 0.1, 2 μM compound for 3 h, RNA 48 h post-infection
[5] = system: hepatitis C viral (HCV) entry; conditions: at a low μM concentration; cited from earlier work

| Molecule | translation inhibition of firefly luciferase (cap-dependent) [1] | anti-HCV activity, compound added 3 h after infection was initiated (HCV) | anti-HCV activity, compound added together with the virus (HCV) | inhibition of HCV mRNA (IRES-dependent) translation [3] | translation inhibition (in words) (translation) | other results |
| --- | --- | --- | --- | --- | --- | --- |
| COc1ccc([C@@]23Oc4cc(OC)cc(OC)c4[C@]2(O)c2nc(-c4cccc(OC)c4)[nH]c(=O)c2[C@H]3c2ccccc2)cc1 [12s] | minimal | partially lost their activity | maximal anti-HCV activity | not inhibited | – | cell death at 200 μM (Huh7.5.1 cells): less than 50%; cell death reached (Huh7.5.1 cells): < 50%; maximum cytotoxicity plateau, cell death (Huh7.5.1 cells): 35%; inhibition of HCV infection in comparison to 6 (fold) [2]: three-fold greater inhibition |
| CONC(=O)[C@H]1[C@@H](O)[C@@]2(O)c3c(OC)cc(OC)cc3O[C@@]2(c2ccc(OC)cc2)[C@@H]1c1ccccc1 [CR-1–31-B] | strong inhibition | – | – | – | – | – |
| COc1ccc([C@@]23Oc4cc(OC)cc(OC)c4[C@]2(O)C2=C(C(=O)N4CCC[C@H]4N2)[C@H]3c2ccccc2)cc1 [compound 5, aglaiastatin] | – | – | – | – | promising translation inhibitor | – |
| COc1ccc([C@@]23Oc4cc(OC)cc(OC)c4[C@]2(O)[C@H](O)[C@H](C(=O)N(C)C)[C@H]3c2ccccc2)cc1 [rocaglamide] | – | – | – | – | – | inhibition of Dengue virus infection [4]: inhibited |
| aglaroxin C [compound 6] | minimal | partially lost their activity | maximal anti-HCV activity | not inhibited | only moderate translation inhibition | inhibition of HCV entry into host cells [5]: inhibited |
